Tests used:
[1] = molecular target: D(1A) dopamine receptor (Homo sapiens) (UniProt P21728); experiment: Hill slope was determined for the compound in D1 receptor binding assay
[2] = molecular target: D(2) dopamine receptor (Homo sapiens) (UniProt P14416)
D(2) dopamine receptor (Homo sapiens), sequence (P14416 whole entry): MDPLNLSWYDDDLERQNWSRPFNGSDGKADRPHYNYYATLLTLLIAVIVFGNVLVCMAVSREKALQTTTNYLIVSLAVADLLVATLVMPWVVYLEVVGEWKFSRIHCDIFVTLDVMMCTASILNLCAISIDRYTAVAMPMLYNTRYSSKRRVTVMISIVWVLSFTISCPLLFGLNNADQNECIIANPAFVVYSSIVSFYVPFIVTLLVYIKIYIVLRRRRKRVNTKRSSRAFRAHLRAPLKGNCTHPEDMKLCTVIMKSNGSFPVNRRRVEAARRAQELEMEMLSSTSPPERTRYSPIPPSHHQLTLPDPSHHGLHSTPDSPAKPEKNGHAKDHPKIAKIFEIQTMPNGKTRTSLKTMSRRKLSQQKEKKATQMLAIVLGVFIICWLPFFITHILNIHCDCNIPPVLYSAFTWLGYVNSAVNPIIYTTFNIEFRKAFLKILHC
Description: Hill slope was determined for the compound in D2 receptor binding assay

D(1A) dopamine receptor (Homo sapiens), sequence (P21728 whole entry): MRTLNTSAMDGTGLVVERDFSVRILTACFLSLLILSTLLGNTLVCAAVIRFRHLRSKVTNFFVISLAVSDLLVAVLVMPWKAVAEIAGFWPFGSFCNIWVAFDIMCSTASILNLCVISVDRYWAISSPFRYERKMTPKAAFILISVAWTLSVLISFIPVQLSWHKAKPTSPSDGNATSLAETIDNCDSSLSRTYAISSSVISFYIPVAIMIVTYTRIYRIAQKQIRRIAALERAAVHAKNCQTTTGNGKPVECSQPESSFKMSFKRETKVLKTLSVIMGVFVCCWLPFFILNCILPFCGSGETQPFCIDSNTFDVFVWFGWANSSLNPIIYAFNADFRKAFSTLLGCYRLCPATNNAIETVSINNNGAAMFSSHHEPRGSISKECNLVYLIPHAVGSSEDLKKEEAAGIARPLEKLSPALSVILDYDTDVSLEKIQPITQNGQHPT

SMILES	nH [1]	nH [2]
Oc1cc2c(cc1O)[C@@H](c1ccccc1)CNCC2	0.75	–
CN1CCc2cc(Cl)c(O)cc2[C@@H](c2ccccc2)C1	1.05	–
Oc1ccc2c(c1O)Cc1cccc3c1[C@H]2CNC3	0.66	–
CN(C)CCCN1c2ccccc2Sc2ccc(Cl)cc21	–	0.93
Oc1cc2c(cc1O)[C@H]1c3ccccc3CN[C@@H]1CC2	0.65	0.72
